Assay results: patent publication EP4711367A1, “PYRAZOLOPYRAZINE COMPOUND AND METHOD FOR PREPARING CRYSTAL FORM THEREOF” (CMS Research & Development Pte. Ltd., priority 2023, dated 2024)

Columns and labels:
JAK3(h) = target: T1, JAK3(h) (Homo sapiens, UniProt P52333); assay: In vitro activity test of JAK3 kinase ([γ-33P]-ATP filter assay, Eurofins); assay type: biochemical
T1 construct: purchased Eurofins (UK)
T1 sequence (P52333 1-1124): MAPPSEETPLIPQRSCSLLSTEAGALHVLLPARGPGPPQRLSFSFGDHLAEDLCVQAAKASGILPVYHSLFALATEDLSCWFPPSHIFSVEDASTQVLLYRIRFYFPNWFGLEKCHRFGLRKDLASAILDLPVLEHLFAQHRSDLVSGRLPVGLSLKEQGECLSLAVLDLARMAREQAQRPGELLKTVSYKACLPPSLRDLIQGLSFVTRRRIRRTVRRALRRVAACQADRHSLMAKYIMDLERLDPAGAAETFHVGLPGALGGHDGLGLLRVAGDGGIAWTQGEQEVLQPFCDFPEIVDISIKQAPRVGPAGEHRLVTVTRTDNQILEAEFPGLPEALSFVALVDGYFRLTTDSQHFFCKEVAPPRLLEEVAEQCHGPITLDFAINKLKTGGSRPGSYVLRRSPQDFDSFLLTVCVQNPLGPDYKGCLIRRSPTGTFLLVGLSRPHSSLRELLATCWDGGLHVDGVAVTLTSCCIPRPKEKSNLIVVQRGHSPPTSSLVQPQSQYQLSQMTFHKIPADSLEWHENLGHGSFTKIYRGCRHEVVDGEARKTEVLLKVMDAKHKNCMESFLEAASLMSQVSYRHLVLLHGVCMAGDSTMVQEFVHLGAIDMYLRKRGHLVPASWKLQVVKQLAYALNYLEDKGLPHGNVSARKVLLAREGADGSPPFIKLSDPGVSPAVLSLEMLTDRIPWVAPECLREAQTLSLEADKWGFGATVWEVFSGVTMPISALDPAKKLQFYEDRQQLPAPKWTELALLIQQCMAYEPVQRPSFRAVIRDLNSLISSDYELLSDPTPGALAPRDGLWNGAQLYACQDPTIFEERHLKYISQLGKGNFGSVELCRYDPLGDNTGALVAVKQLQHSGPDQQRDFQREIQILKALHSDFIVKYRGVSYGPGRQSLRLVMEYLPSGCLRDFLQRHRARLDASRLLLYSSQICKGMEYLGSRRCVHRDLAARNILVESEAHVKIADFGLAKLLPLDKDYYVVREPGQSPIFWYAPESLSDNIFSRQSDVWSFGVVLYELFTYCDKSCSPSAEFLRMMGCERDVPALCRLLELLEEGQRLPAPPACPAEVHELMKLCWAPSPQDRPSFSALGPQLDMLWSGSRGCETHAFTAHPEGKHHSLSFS
Procedure: Recombinant human JAK1, JAK2, JAK3, and Tyk2 proteases, along with major instruments and reagents, were provided by Eurofins in the UK. JAK2, JAK3, and TYK2 were diluted with: 20 mM 3-(N-morpholino)propanesulfonic acid (MOPS), 1 mM EDTA, 0.01% Brij-35.5% glycerol, 0.1% β-mercaptoethanol, 1 mg/mL BSA; JAK1 was diluted with: 20 mM TRIS, 0.2 mM EDTA, 0.1% β-mercaptoethanol, 0.01% Brij-35.5% glycerol. The compound of formula (I) was prepared as a 100% DMSO solution and diluted to 50 times the final assay concentration. The test compound was subjected to a 3-fold serial dilution, with final concentrations ranging from 10 µM to 0.001 µM across 9 concentrations, and the DMSO content in the detection reaction was 2%. The working stock solution of this compound was added as the first component of the reaction to the assay wells, followed by the addition of the remaining components according to the protocol detailed below. JAK3(h) was incubated with 8 mM MOPS pH 7.0, 0.2 mM EDTA, 500 µM GGEEEEYFELVKKKK, 10 mM magnesium acetate, and [γ-^33P]-ATP (activity and concentration were adjusted as needed). The reaction was initiated by adding the Mg/ATP mixture and incubated at room temperature for 40 minutes, then terminated by adding 0.5% phosphoric acid. […] The IC50 results were analyzed using XLFIT5 (205 formula) from IDBS, as detailed in Table 12. […]

paw swelling = assay: Paw swelling and scores in mice after oral administration (only summarised, no method given); assay type: in vivo
JAK2(h) = target: T2, JAK2(h) (Homo sapiens, UniProt O60674); assay: In vitro activity test of JAK2 kinase ([γ-33P]-ATP filter assay, Eurofins); assay type: biochemical
T2 construct: purchased Eurofins (UK)
T2 sequence (O60674 whole entry): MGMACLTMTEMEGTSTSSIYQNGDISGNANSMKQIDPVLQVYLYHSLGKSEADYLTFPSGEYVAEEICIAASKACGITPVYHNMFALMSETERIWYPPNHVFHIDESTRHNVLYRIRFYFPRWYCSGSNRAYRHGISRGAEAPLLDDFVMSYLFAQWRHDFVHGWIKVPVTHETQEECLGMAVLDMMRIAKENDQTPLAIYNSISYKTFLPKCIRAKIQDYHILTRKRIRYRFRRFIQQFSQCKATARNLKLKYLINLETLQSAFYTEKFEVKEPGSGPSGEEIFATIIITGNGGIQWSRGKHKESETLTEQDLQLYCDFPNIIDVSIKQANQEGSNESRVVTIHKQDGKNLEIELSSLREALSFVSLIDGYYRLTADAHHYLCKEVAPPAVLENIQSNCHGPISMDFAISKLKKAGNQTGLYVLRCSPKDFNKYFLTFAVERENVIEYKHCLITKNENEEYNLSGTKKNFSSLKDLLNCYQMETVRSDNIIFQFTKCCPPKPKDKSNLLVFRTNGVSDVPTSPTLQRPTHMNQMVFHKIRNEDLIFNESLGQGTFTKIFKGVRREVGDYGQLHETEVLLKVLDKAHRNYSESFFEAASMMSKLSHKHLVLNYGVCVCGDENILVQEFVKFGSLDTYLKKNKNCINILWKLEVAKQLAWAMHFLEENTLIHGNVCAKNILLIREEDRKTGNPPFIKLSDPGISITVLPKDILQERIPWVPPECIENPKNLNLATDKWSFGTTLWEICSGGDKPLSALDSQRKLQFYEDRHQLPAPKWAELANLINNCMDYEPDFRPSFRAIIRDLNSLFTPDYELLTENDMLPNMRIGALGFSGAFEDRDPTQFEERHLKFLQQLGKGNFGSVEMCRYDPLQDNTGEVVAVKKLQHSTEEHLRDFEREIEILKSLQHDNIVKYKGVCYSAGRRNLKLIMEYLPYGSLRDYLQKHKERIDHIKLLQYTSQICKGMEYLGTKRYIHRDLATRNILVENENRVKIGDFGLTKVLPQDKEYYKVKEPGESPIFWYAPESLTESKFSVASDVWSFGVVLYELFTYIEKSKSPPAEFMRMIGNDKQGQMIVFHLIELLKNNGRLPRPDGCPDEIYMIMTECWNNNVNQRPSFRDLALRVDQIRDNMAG
Procedure: (§1) Recombinant human JAK1, JAK2, JAK3, and Tyk2 proteases, along with major instruments and reagents, were provided by Eurofins in the UK.
(§2) JAK2, JAK3, and TYK2 were diluted with: 20 mM 3-(N-morpholino)propanesulfonic acid (MOPS), 1 mM EDTA, 0.01% Brij-35.5% glycerol, 0.1% β-mercaptoethanol, 1 mg/mL BSA; JAK1 was diluted with: 20 mM TRIS, 0.2 mM EDTA, 0.1% β-mercaptoethanol, 0.01% Brij-35.5% glycerol. The compound of formula (I) was prepared as a 100% DMSO solution and diluted to 50 times the final assay concentration. The test compound was subjected to a 3-fold serial dilution, with final concentrations ranging from 10 µM to 0.001 µM across 9 concentrations, and the DMSO content in the detection reaction was 2%. The working stock solution of this compound was added as the first component of the reaction to the assay wells, followed by the addition of the remaining components according to the protocol detailed below.
JAK2(h) was incubated with 8 mM MOPS pH 7.0, 0.2 mM EDTA, 100 µM […], 10 mM magnesium acetate, and [γ-^33P]-ATP (prepared to the required activity and concentration). The reaction was initiated by adding the Mg/ATP mixture and incubated at room temperature for 40 minutes, then terminated by adding 0.5% phosphoric acid. […]
(§3) The IC50 results were analyzed using XLFIT5 (205 formula) from IDBS, as detailed in Table 12. […]

JAK1(h) = target: T3, JAK1(h) (Homo sapiens, UniProt P23458); assay: In vitro activity test of JAK1 kinase ([γ-33P]-ATP filter assay, Eurofins); assay type: biochemical
T3 construct: purchased Eurofins (UK)
T3 sequence (P23458 whole entry): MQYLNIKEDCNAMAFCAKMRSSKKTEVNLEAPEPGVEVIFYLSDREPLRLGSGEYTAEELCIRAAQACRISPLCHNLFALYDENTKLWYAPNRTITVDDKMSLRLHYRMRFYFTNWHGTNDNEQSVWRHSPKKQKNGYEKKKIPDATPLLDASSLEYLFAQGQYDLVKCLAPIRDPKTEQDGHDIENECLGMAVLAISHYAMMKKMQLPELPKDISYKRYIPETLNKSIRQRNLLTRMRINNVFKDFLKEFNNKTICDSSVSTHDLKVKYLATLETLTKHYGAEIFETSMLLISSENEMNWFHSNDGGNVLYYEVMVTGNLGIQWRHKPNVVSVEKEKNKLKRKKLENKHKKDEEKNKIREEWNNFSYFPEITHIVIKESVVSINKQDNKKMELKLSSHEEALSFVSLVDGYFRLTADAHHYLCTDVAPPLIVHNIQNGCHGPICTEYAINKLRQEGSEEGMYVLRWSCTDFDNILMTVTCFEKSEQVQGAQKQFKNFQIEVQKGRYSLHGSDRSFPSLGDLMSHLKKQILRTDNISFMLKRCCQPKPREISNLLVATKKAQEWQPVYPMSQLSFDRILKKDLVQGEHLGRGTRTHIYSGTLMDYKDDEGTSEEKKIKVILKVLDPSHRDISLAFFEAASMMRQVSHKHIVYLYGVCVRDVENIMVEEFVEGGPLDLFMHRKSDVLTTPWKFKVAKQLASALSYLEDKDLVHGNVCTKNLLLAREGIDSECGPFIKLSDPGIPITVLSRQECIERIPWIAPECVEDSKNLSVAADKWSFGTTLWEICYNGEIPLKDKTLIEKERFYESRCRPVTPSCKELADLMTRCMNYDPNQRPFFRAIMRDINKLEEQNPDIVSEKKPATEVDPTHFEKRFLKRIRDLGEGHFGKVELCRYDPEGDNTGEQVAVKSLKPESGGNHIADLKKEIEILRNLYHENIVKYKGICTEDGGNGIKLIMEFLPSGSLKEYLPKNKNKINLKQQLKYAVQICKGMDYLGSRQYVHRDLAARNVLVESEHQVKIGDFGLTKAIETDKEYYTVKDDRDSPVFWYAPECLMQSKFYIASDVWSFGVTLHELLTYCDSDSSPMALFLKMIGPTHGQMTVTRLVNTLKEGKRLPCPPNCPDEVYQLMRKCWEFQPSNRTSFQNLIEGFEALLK
Procedure: as §1, §2
JAK1(h) was incubated with 20 mM Tris/HCl pH 7.5, 0.2 mM EDTA, 500 µM MGEEPLYWSFPAKKK, 10 mM magnesium acetate, and [γ-^33P]-ATP (activity and concentration adjusted as needed). The reaction was initiated by adding the Mg/ATP mixture and incubated at room temperature for 40 minutes, then terminated by adding 0.5% phosphoric acid. […]
as §3

**Q.** How did the IC50 (JAK3(h)) turn out when Cn1cc(-c2cn3nccc3c(-c3cnn([C@]4(CC#N)CC5(C[C@H](C#N)C5)C4)c3)n2)cn1 (stereo partly drawn) [Compound of formula (I)] was run?
**A.** 189 nM

**Q.** What about the “degree of paw swelling (in words)” value (paw swelling) of the same molecule?
**A.** significantly improve

**Q.** What about the “effect on animal body weight (in words)” value (paw swelling) of the same molecule?
**A.** no significant effect

**Q.** And the “scores and relative scores (in words)” value (paw swelling)?
**A.** ameliorate

**Q.** What about the IC50 (JAK2(h)) of the same molecule?
**A.** 4 nM

**Q.** And the IC50 (JAK1(h))?
**A.** 10 nM
